The values that follow come from US10091997B2, “Composition for inhibition of insect host sensing” (Vanderbilt University, priority 2010, dated 2018).

Each structure is given as a SMILES string. “Also recorded” adds a separate entry of the source.

One assay has as its system AgORco+AgOR10. The assay can be described thus: plate-based Fluo-4 Ca2+ imaging in stable HEK293 cell lines. More on the design: species or system Anopheles gambiae. Particulars: AgORco+AgOR10 HEK293 cells; not seen in control cells. The source says: For transient transfections, ORs were cloned into pCI (Promega) and transfected into Flp-In™ T-REx™293 cell lines (Invitrogen) with Fu GENE6 (Roche). For the creation of stable cell lines, a cell culture expression vector capable of expressing AgORco in conjunction with a conventional OR, pcDNA5/FRT/TO (Invitrogen) was modified to create two individual expression cassettes each under the control of a separate CMV/TetO2 promoter and a BGH poly-adenylation signal. Cells (as above) were transfected with the modified pcDNA5 plasmid along with POG44 (a Flp recombinase expression plasmid) to facilitate site-specific recombination. Stable cell lines were selected using Hygromycin B (Invitrogen). Cells were maintained in DMEM (Invitrogen) supplemented with 10% Tetracycline-free FBS (HyClone) and 15 μg/ml Blasticidin. For fluorometric Ca^2+ measurements, stable lines expressing ORs of interest were seeded at 20,000 cells/well in black wall, poly-lysine coated 384-well cell culture plates (Greiner) and treated with […] tetracycline (Sigma) overnight to induce OR expression. Cells were dye-loaded with 1.8 μM Fluo-4 AM (Molecular Probes), 2.5 mM Probenecid (Molecular Probes) in assay buffer (20 mM HEPES, 1×HBSS) for 45 minutes at 37° C. in 5% CO2 prior to each assay. […] Baseline readings were taken for 20 s before automated addition of compound previously diluted in DMSO and assay buffer. […]

The test system of assay [1] is Un-transfected HEK293 cells. The assay can be described thus: whole-cell patch clamp, control HEK293 cells (un-transfected or GFP alone). It is filed as cell-based, human. The procedure:
(§1) Currents from OR-expressing HEK293 cells were amplified with an Axopatch 200b Amplifier (Axon Instruments) and digitized through a Digidata 1322A (Axon Instruments). Electrophysiological data was recorded and analyzed using pCLAMP 10 (Axon Instruments). Electrodes were fabricated from quartz tubing (Sutter Instruments) and pulled to 4-6 MΩ for whole cell recording. Electrodes were filled with internal solution (120 mM KCl, 30 mM D-glucose, 10 mM HEPES, 2 mM MgCl2, 1.1 mM EGTA, and 0.1 CaCl2 (pH 7.35, 280 mOsm). External (bath) solution contained 130 mM NaCl, 34 mM D-glucose, 10 mM HEPES, 1.5 mM CaCl2, 1.3 mM KH2PO4, and 0.5 MgSO4 (pH 7.35, 300 mOsm). Compounds were diluted in external solution and locally perfused to the recording cell using Perfusion Pencil (Automate Scientific) and controlled by a ValveLink 8.2 controller (Automate Scientific). Whole cell recordings were sampled at 10 kHz and filtered at 5 kHz. Outside-out patches were obtained using 10-15MΩ electrodes pulled from standard glass capillaries (World Precision Instruments) and fire-polished with an MF-830 micro forge (Narishige). Single channel recordings were sampled at 20 kHz. Recordings were reduced to 1 kHz and low-pass filtered at 500 Hz for display and analysis using QuB (SUNY at Buffalo).

The next assay addresses T1, AgORco (Anopheles gambiae, UniProt Q7QCC7).
T1 construct: expressed in transfected cells
T1 sequence (Q7QCC7 1-478): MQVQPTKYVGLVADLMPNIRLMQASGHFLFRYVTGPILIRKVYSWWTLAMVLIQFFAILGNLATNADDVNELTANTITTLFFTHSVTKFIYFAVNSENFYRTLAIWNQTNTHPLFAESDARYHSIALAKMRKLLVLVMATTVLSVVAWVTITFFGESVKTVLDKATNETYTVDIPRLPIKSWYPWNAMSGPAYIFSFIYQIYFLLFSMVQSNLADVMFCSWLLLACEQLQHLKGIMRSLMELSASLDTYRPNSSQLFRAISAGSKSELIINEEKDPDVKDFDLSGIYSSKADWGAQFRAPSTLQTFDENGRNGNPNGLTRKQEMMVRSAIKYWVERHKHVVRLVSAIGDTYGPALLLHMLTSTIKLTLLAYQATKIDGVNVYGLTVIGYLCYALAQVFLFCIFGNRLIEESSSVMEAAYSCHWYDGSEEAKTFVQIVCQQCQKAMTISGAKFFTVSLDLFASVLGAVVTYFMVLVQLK
The assay can be described thus: single-channel recording, outside-out patches from AgORco-expressing HEK293 cells. It is filed as cell-based. The procedure: as §1
In the next set of studies, outside-out membrane patches were excised from AgORco-expressing cells to examine single-channel currents evoked by VUAA1 (FIG. 5A). Here, spontaneous channel opening was observed before VUAA1 stimulation, but with very low probability (Po=0.02) (FIG. 5B). During a 5 s application of VUAA1 channel opening probability increased to Po=0.38 (FIG. 5C). Subsequent to agonist washout, channel opening probability decreased to 0.00 (FIG. 5D). The average unitary current of AgORco was 1.3±0.3 pA (mean±st. dev.) (FIG. 5C, inset) which is consistent with earlier single-channel studies of insect ORs (Sato et al., 2008).

A further assay relates to An. gambiae larvae. The assay can be described thus: larval behavioral (movement) bioassay, Ethovision. The assay is classed as in vivo, Anopheles gambiae. The procedure: FIG. 9. VUAA1's larval activity threshold relative to DEET is 5 orders of magnitude lower and AgORco dependent. Larval activity in An. gambiae over 5 minutes monitored in 6-well culture plates using Ethovision (Noldus) software.
In order to address whether VUAA1 as a non-volatile could also evoke behavioral responses from An. gambiae, the inventors tested behavioral responses to VUAA1 on individual larval stage mosquitoes by adaptation of an olfactory based bioassay recently developed at Vanderbilt (described in Liu et al., 2010). These methods are non-invasive, and easily executed using a fully automated setup with an Ethovision® camera/software system (Noldus Information Technology to quantify the overall movement of mosquito larvae in response to uniform concentrations of chemicals. In these assays, increased overall movement can be interpreted as an aversive response (akin to agitation) that are consistent with those evoked by commercially available insect repellents such as DEET.

With `CCc1ccc(NC(=O)CSc2nnc(-c3cccnc3)n2CC)cc1` [VUAA1], in the assay on AgORco+AgOR10, the “Ca2+ imaging response” value is on record as “concentration-dependent responses”. In assay [1] (HEK cells transfected with GFP alone), the “whole-cell currents in GFP alone cells” value is “no currents”. In addition, the “whole-cell currents in control cells” value in assay [1] (control / un-transfected HEK293 cells) is “no responses were observed; also recorded: did not respond”. For the same molecule, the “channel opening probability (Po) during application” value at AgORco (5 s application of −4.0 log M, outside-out patch held at −60 mV, Po=0.02 before stimulation) amounted to 0.38. Besides, the “average unitary current of AgORco” value on AgORco (during VUAA1 application, mean±st. dev.) was found to be 1.3±0.3 pA. Besides, the “channel opening probability after agonist washout” value at AgORco (outside-out patch, after washout) is reported as 0.00. For the same molecule, the “larval behavioral responses (overall movement)” value with An. gambiae larvae (An. gambiae larvae, 5 minutes) is reported as “robust responses”. The “larval response after AgORco silencing” value with An. gambiae larvae (larvae treated with AgOrco siRNAs) is “no longer respond”. For the same molecule, the “larval response after mock or non-specific siRNA control injection” value in the assay with An. gambiae larvae (mock or non-specific siRNA control injection) is on record as “retain their high sensitivity”. Moreover, in the assay with An. gambiae larvae (relative to DEET), the “threshold of larval responses lower than DEET” value is on record as 5 orders of magnitude.
